The target of this experiment is HSD17B13 (Homo sapiens (Human), UniProt Q7Z5P4). Put plainly: HSD17B13 enzymatic inhibition assay (150 nM or 50 nM HSD17B13). It is filed as biochemical. The note with it: 50 nM HSD17B13; read-out: Inhibition of 50 nM of HSD17B13 IC50.
Sequence of HSD17B13 (Q7Z5P4 other isoform, or with tags, fused parts or gaps): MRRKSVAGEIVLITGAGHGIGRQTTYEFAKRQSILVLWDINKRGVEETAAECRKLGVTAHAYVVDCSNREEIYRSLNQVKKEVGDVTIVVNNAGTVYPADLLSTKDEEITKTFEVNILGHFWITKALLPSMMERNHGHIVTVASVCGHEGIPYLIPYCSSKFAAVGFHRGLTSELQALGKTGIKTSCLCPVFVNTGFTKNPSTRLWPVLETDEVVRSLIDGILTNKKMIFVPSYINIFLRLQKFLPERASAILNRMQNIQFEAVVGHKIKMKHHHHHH
For the compound `C=Cc1cc(C(=O)NC2c3ccc(Cl)cc3Oc3cc(Cl)ccc32)c(=O)[nH]c1C(F)(F)F` [Compound 171, N-(3,6-dichloro-9H-xanthen-9-yl)-2-oxo-6-(trifluoromethyl)-5-vinyl-1,2-dihydropyridine-3-carboxamide], the IC50 came to 100 nM.

With `CCc1cc(C(=O)NC2c3ccc(Cl)cc3Oc3cc(Cl)ccc32)c(=O)[nH]c1C(F)(F)F` [Compound 172, N-(3,6-dichloro-9H-xanthen-9-yl)-5-ethyl-2-oxo-6-(trifluoromethyl)-1,2-dihydropyridine-3-carboxamide], the IC50 came to 140 nM.

`C=CCc1cc(C(=O)NC2c3ccc(Cl)cc3Oc3cc(Cl)ccc32)c(=O)[nH]c1C(F)(F)F` [Compound 173, 5-allyl-N-(3,6-dichloro-9H-xanthen-9-yl)-2-oxo-6-(trifluoromethyl)-1,2-dihydropyridine-3-carboxamide]: the IC50 was determined as 30 nM.

For the compound `C=CCc1cc(C(=O)NC2c3ccc(Cl)cc3Oc3cccc(Cl)c32)c(=O)[nH]c1C(F)(F)F` (stereo not drawn) [Compound 174, 5-allyl-N-(1,6-dichloro-9H-xanthen-9-yl)-2-oxo-6-(trifluoromethyl)-1,2-dihydropyridine-3-carboxamide], the IC50 was 240 nM.

As to `Cc1ccc2c(c1)Oc1cccc(C)c1C2NC(=O)c1cc(-c2ccccc2)c(C(F)(F)F)[nH]c1=O` (stereo not drawn) [Compound 175, N-(1,6-dimethyl-9H-xanthen-9-yl)-2-oxo-5-phenyl-6-(trifluoromethyl)-1,2-dihydropyridine-3-carboxamide], the IC50 came to 280 nM.

Take `CCCc1cc(C(=O)NC2c3ccc(Cl)cc3Oc3cccc(Cl)c32)c(=O)[nH]c1C(F)(F)F` (stereo not drawn) [Compound 179, N-(1,6-dichloro-9H-xanthen-9-yl)-2-oxo-5-propyl-6-(trifluoromethyl)-1,2-dihydropyridine-3-carboxamide]: the IC50 was determined as 400 nM.

In the case of `C=CCc1cc(C(=O)NC2c3ccc(C)cc3Oc3cccc(C)c32)c(=O)[nH]c1C(F)(F)F` (stereo not drawn) [Compound 180, 5-allyl-N-(1,6-dimethyl-9H-xanthen-9-yl)-2-oxo-6-(trifluoromethyl)-1,2-dihydropyridine-3-carboxamide], the IC50 was found to be 160 nM.

`CCCc1cc(C(=O)NC2c3ccc(C)cc3Oc3cccc(C)c32)c(=O)[nH]c1C(F)(F)F` (stereo not drawn) [Compound 181, N-(1,6-dimethyl-9H-xanthen-9-yl)-2-oxo-5-propyl-6-(trifluoromethyl)-1,2-dihydropyridine-3-carboxamide]: the IC50 is 390 nM.

In the case of `Cc1ccc2c(c1)Oc1cccc(C)c1C2NC(=O)c1cc(CCc2ccccc2)c(C(F)(F)F)[nH]c1=O` (stereo not drawn) [Compound 184, N-(1,6-dimethyl-9H-xanthen-9-yl)-2-oxo-5-phenethyl-6-(trifluoromethyl)-1,2-dihydropyridine-3-carboxamide], the IC50 stood at 150 nM.

On to `Cc1ccc2c(c1)Oc1cccc(C)c1C2NC(=O)c1cc(CO)c(C(F)(F)F)[nH]c1=O` (stereo not drawn) [Compound 185, N-(1,6-dimethyl-9H-xanthen-9-yl)-5-(hydroxymethyl)-2-oxo-6-(trifluoromethyl)-1,2-dihydropyridine-3-carboxamide], for which the IC50 stood at 730 nM.

As to `Cc1ccc2c(c1)Oc1cccc(C)c1C2NC(=O)c1cc(C2CCCCC2)c(C(F)(F)F)[nH]c1=O` (stereo not drawn) [Compound 186, 5-cyclohexyl-N-(1,6-dimethyl-9H-xanthen-9-yl)-2-oxo-6-(trifluoromethyl)-1,2-dihydropyridine-3-carboxamide], the IC50 was determined as 1830 nM.

Take `Cc1ccc2c(c1)Oc1cccc(C)c1C2NC(=O)c1cc(C2=CCCCC2)c(C(F)(F)F)[nH]c1=O` (stereo not drawn) [Compound 187, 5-(cyclohex-1-en-1-yl)-N-(1,6-dimethyl-9H-xanthen-9-yl)-2-oxo-6-(trifluoromethyl)-1,2-dihydropyridine-3-carboxamide]: the IC50 turned out to be 770 nM.

On to `Cc1ccc2c(c1)Oc1cccc(C)c1C2NC(=O)c1cc(C2=CCOCC2)c(C(F)(F)F)[nH]c1=O` (stereo not drawn) [Compound 188, 5-(3,6-dihydro-2H-pyran-4-yl)-N-(1,6-dimethyl-9H-xanthen-9-yl)-2-oxo-6-(trifluoromethyl)-1,2-dihydropyridine-3-carboxamide], for which the half-maximal inhibitory concentration (IC50) was found to be 280 nM.

In the case of `Cc1ccc2c(c1)Oc1cc(C)ccc1C2NC(=O)c1cc(Br)c(C(F)(F)F)[nH]c1=O` [Compound 189, 5-bromo-N-(3,6-dimethyl-9H-xanthen-9-yl)-2-oxo-6-(trifluoromethyl)-1,2-dihydropyridine-3-carboxamide], the IC50 came to 70 nM.

`O=C(NC1c2ccc(Cl)cc2Oc2cccc(Cl)c21)c1cnc(C(F)(F)F)[nH]c1=O` (stereo not drawn) [Compound 191, N-(1,6-dichloro-9H-xanthen-9-yl)-6-oxo-2-(trifluoromethyl)-1,6-dihydropyrimidine-5-carboxamide]: the IC50 came to 870 nM.

Turning to `O=C(NC1c2ccc(Cl)cc2Oc2cc(Cl)ccc21)c1cnc(C(F)(F)F)[nH]c1=O` [Compound 192, N-(3,6-dichloro-9H-xanthen-9-yl)-6-oxo-2-(trifluoromethyl)-1,6-dihydropyrimidine-5-carboxamide], the IC50 amounted to 230 nM.

Take `Cc1ccc2c(c1)Oc1cccc(C)c1C2NC(=O)c1cnc(C(F)(F)F)[nH]c1=O` (stereo not drawn) [Compound 193, N-(1,6-dimethyl-9H-xanthen-9-yl)-6-oxo-2-(trifluoromethyl)-1,6-dihydropyrimidine-5-carboxamide]: the IC50 was 1020 nM.

For the compound `Cc1cc(C(F)(F)F)[nH]c(=O)c1C(=O)NC1c2ccccc2Oc2ccccc21` [Compound 195, 4-methyl-2-oxo-6-(trifluoromethyl)-N-(9H-xanthen-9-yl)-1,2-dihydropyridine-3-carboxamide], the IC50 was 3310 nM.

On to `Cc1cc(C(F)(F)F)[nH]c(=O)c1C(=O)NC1c2ccccc2Oc2cc(Cl)ccc21` (stereo not drawn) [Compound 196, N-(3-chloro-9H-xanthen-9-yl)-4-methyl-2-oxo-6-(trifluoromethyl)-1,2-dihydropyridine-3-carboxamide], for which the IC50 came to 630 nM.

For `COc1ccc2c(c1)Oc1ccccc1C2NC(=O)c1ccc(C(F)(F)F)[nH]c1=O` (stereo not drawn) [Compound 197, N-(3-methoxy-9H-xanthen-9-yl)-2-oxo-6-(trifluoromethyl)-1,2-dihydropyridine-3-carboxamide], the IC50 worked out at 1130 nM.

As to `Cc1ccc2c(c1)Oc1cccc(C)c1C2NC(=O)c1c(C)cc(C(F)(F)F)[nH]c1=O` (stereo not drawn) [Compound 199, N-(1,6-dimethyl-9H-xanthen-9-yl)-4-methyl-2-oxo-6-(trifluoromethyl)-1,2-dihydropyridine-3-carboxamide], the IC50 amounted to 5150 nM.

In the case of `Cc1cc(C(F)(F)F)[nH]c(=O)c1C(=O)NC1c2ccc(Cl)cc2Oc2cccc(Cl)c21` (stereo not drawn) [Compound 200, N-(1,6-dichloro-9H-xanthen-9-yl)-4-methyl-2-oxo-6-(trifluoromethyl)-1,2-dihydropyridine-3-carboxamide], the IC50 was above 10000 nM.

As to `CCc1cc(C(F)(F)F)[nH]c(=O)c1C(=O)NC1c2ccc(C)cc2Oc2cc(C)ccc21` [Compound 201, N-(3,6-dimethyl-9H-xanthen-9-yl)-4-ethyl-2-oxo-6-(trifluoromethyl)-1,2-dihydropyridine-3-carboxamide], the IC50 was 430 nM.

For the compound `Cc1ccc2c(c1)Oc1cc(C)ccc1C2NC(=O)c1c(C)cc(C(F)(F)F)[nH]c1=O` [Compound 202, N-(3,6-dimethyl-9H-xanthen-9-yl)-4-methyl-2-oxo-6-(trifluoromethyl)-1,2-dihydropyridine-3-carboxamide], the IC50 stood at 350 nM.

With `Cc1cc(C(F)(F)F)[nH]c(=O)c1C(=O)NC1c2ccc(Cl)cc2Oc2cc(Cl)ccc21` [Compound 203, N-(3,6-dichloro-9H-xanthen-9-yl)-4-methyl-2-oxo-6-(trifluoromethyl)-1,2-dihydropyridine-3-carboxamide], the concentration for half-maximal inhibition (IC50) was determined as 1050 nM.

As for `CCc1cc(C(F)(F)F)[nH]c(=O)c1C(=O)NC1c2ccc(C)cc2Oc2cccc(C)c21` (stereo not drawn) [Compound 204, N-(1,6-dimethyl-9H-xanthen-9-yl)-4-ethyl-2-oxo-6-(trifluoromethyl)-1,2-dihydropyridine-3-carboxamide], the IC50 was above 10000 nM.

In the case of `CCc1cc(C(F)(F)F)[nH]c(=O)c1C(=O)NC1c2ccc(Cl)cc2Oc2cccc(Cl)c21` (stereo not drawn) [Compound 205, N-(1,6-dichloro-9H-xanthen-9-yl)-4-ethyl-2-oxo-6-(trifluoromethyl)-1,2-dihydropyridine-3-carboxamide], the IC50 was above 10000 nM.

In the case of `CCc1cc(C(F)(F)F)[nH]c(=O)c1C(=O)NC1c2ccc(Cl)cc2Oc2cc(Cl)ccc21` [Compound 206, N-(3,6-dichloro-9H-xanthen-9-yl)-4-ethyl-2-oxo-6-(trifluoromethyl)-1,2-dihydropyridine-3-carboxamide], the IC50 stood at 290 nM.

For `CCCc1cc(C(F)(F)F)[nH]c(=O)c1C(=O)NC1c2ccc(C)cc2Oc2cc(C)ccc21` [Compound 207, N-(3,6-dimethyl-9H-xanthen-9-yl)-2-oxo-4-propyl-6-(trifluoromethyl)-1,2-dihydropyridine-3-carboxamide], the IC50 was 180 nM.

For `CCCc1cc(C(F)(F)F)[nH]c(=O)c1C(=O)NC1c2ccc(C)cc2Oc2cccc(C)c21` (stereo not drawn) [Compound 208, N-(1,6-dimethyl-9H-xanthen-9-yl)-2-oxo-4-propyl-6-(trifluoromethyl)-1,2-dihydropyridine-3-carboxamide], the half-maximal inhibitory concentration (IC50) is above 10000 nM.

Regarding `CCCc1cc(C(F)(F)F)[nH]c(=O)c1C(=O)NC1c2ccc(Cl)cc2Oc2cccc(Cl)c21` (stereo not drawn) [Compound 209, N-(1,6-dichloro-9H-xanthen-9-yl)-2-oxo-4-propyl-6-(trifluoromethyl)-1,2-dihydropyridine-3-carboxamide], the IC50 was found to be 3440 nM.

As for `CCCc1cc(C(F)(F)F)[nH]c(=O)c1C(=O)NC1c2ccc(Cl)cc2Oc2cc(Cl)ccc21` [Compound 210, N-(3,6-dichloro-9H-xanthen-9-yl)-2-oxo-4-propyl-6-(trifluoromethyl)-1,2-dihydropyridine-3-carboxamide], the IC50 came out at 930 nM.

As for `Cc1cc(C(=O)NC2c3ccc(Cl)cc3Oc3cccc(Cl)c32)c(=O)[nH]c1C(F)(F)F` (stereo not drawn) [Compound 211, N-(1,6-dichloro-9H-xanthen-9-yl)-5-methyl-2-oxo-6-(trifluoromethyl)-1,2-dihydropyridine-3-carboxamide], the half-maximal inhibitory concentration (IC50) is 870 nM.

The values above are taken from patent US11957687B2 (REGENERON PHARMACEUTICALS, INC., priority 2019, dated 2024).
